Consider eight compounds from ChEMBL document CHEMBL4130387, “Design, synthesis and in vivo study of novel pyrrolidine-based 11β-HSD1 inhibitors for age-related cognitive dysfunction” (Eur J Med Chem, 2017).

Activity calls are given as the source filed them. No cut-off for these calls is given here.

Broadly, the IC50 is the concentration at which inhibition is half-maximal. A high value points to weaker potency. For orientation: inhibition means the percentage by which the read-out fell short of the control. Read a low inhibition as a response near the control. One may read the Cmax as the highest concentration seen after dosing. Usually Tmax stands for the time at which the peak concentration occurs. Broadly, the CL/F is the apparent clearance, not corrected for the fraction that reaches the circulation. A word on the AUC(0-t): it is the area under the concentration-time curve up to a stated or last time point. A lower AUC(0-t) goes with low exposure. For orientation: AUC(0-inf) means the area under the concentration-time curve extrapolated to infinity. A lower AUC(0-inf) goes with low exposure.

The target in data set [1] is T1, 11-beta-hydroxysteroid dehydrogenase type 2 (Homo sapiens, UniProt P80365).
T1 sequence (P80365 whole entry): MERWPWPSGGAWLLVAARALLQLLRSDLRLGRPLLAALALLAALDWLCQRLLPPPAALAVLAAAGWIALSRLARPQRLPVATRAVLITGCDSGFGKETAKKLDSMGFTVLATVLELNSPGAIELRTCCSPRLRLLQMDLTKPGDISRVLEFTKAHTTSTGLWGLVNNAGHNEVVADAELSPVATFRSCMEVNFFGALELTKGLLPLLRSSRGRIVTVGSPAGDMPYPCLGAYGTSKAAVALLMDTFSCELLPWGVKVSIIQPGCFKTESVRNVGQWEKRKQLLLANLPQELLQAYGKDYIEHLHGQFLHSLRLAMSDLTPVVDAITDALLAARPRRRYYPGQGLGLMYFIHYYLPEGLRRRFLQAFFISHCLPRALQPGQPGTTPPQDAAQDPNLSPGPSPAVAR
Put plainly: Inhibition of human full-length 11beta-HSD2 expressed in HEK293 cells using cortisol as substrate after 2 hrs by LC-MS analysis. Format: cell-based.

Data set [2] can be described thus: Stability in human liver microsomes at 10 uM after 30 mins by LC-MS/MS analysis. In kind it is ADME, microsome. Conditions: read-out: Stability.
Data set [3] addresses 11-beta-hydroxysteroid dehydrogenase 1 (Homo sapiens, UniProt P28845). As to the kind of experiment: Inhibition of 11beta-HSD1 in human liver microsomes using [3H]cortisone as substrate preincubated for 15 mins followed by substrate addition and measured after 30 mins by scintillation proximity assay. Background: Liver microsomes are a subcellular fraction often used to study metabolism.

Data set [4] deals with T2, 11-beta-hydroxysteroid dehydrogenase type 2 (Homo sapiens) (UniProt P80365).
T2 sequence (whole entry): T1 sequence (P80365 whole entry)
Put plainly: Inhibition of human full-length 11beta-HSD2 expressed in HEK293 cells at 10 uM using cortisol as substrate after 2 hrs by LC-MS analysis relative to control. Format: cell-based.

Data set [5] has as its system Mus musculus. As to the kind of experiment: Extrapolated AUC in CD1 mouse at 21 mg/kg, po by UPLC-MS/MS analysis. In kind it is ADME, organism-based. The settings on record: in vivo.
Data set [6] in a line: Cmax in CD1 mouse at 21 mg/kg, po by UPLC-MS/MS analysis. In kind it is ADME, organism-based. Set-up: dose 21 mg/kg, route oral. Conditions: in vivo.
Data set [7] can be described thus: Plasma concentration in CD1 mouse at 21 mg/kg, po after 5 hrs by UPLC-MS/MS analysis. Format: ADME, organism-based.
Data set [8] relates to Mus musculus. As to the kind of experiment: Effect on pre-APP protein levels in SAMP8 mouse brain at 21 mg/kg, po for 4 days by Western blot analysis. Format: functional, organism-based. A general note: A western blot detects proteins with antibodies after separation by electrophoresis.
Data set [9] can be described thus: Tmax in CD1 mouse at 21 mg/kg, po by UPLC-MS/MS analysis. In kind it is ADME, organism-based. Conditions: in vivo.
Data set [10] can be described thus: Apparent oral clearance in CD1 mouse at 21 mg/kg, po by UPLC-MS/MS analysis. Format: ADME, organism-based. The settings on record: in vivo.
The nature of data set [11]: Plasma concentration in CD1 mouse at 21 mg/kg, po after 3 hrs by UPLC-MS/MS analysis. In kind it is ADME, organism-based.
For data set [12], the system named is Mus musculus. As to the kind of experiment: Upregulation of IDE protein levels in SAMP8 mouse brain at 21 mg/kg, po for 4 days by Western blot analysis. In kind it is functional, organism-based.
The subject of data set [13] is Mus musculus. As to the kind of experiment: Cognitive enhancing effect in SAMP8 mouse assessed as prevention of short-term memory deficits by measuring time spent on exploring novel objects at 21 mg/kg, po for 4 days and measured during 10 mins retention trial after 24 hrs by novel object recognition test. In kind it is functional, organism-based.
For data set [14], the system named is Mus musculus. As to the kind of experiment: Dose normalized AUC (infinity) in CD1 mouse at 21 mg/kg, po by UPLC-MS/MS analysis. Format: ADME, organism-based. The settings on record: in vivo.
Data set [15] is described as follows: AUClast in CD1 mouse at 21 mg/kg, po by UPLC-MS/MS analysis. Format: ADME, organism-based. Conditions: in vivo. More on the design: dose 21 mg/kg, time 0 - last, route oral.
Data set [16] can be described thus: Ratio of plasma concentration in CD1 mouse at 21 mg/kg, po after 0.5 hrs by UPLC-MS/MS analysis to IC50 for inhibition of 11beta-HSD1 in human liver microsomes. The settings on record: in vivo. Format: organism-based.
A short description of data set [17]: Apparent volume of distribution during terminal phase in CD1 mouse at 21 mg/kg, po by UPLC-MS/MS analysis. In kind it is ADME, organism-based. Conditions: in vivo, read-out: Vz/F.
The test system of data set [18] is Mus musculus. As to the kind of experiment: Downregulation of iNOS mRNA levels in SAMP8 mouse at 21 mg/kg, po for 4 days by qRT-PCR analysis. In kind it is functional, organism-based.
A short description of data set [19]: Apparent half-life of the terminal disposition phase in CD1 mouse at 21 mg/kg, po by UPLC-MS/MS analysis. In kind it is ADME, organism-based. The settings on record: in vivo, read-out: t1/2 lambda z (converted).
Data set [20] is described as follows: AUC (infinity) in CD1 mouse at 21 mg/kg, po by UPLC-MS/MS analysis. In kind it is ADME, organism-based. The settings on record: in vivo. More on the design: dose 21 mg/kg, time infinity, route oral.
Data set [21] is described as follows: Drug uptake in CD1 mouse brain at 21 mg/kg, po after 3 hrs by UPLC-MS/MS analysis. Format: ADME, organism-based. Conditions: read-out: Drug uptake.
The test system of data set [22] is Mus musculus. Put plainly: Effect on pre-APP mRNA levels in SAMP8 mouse brain at 21 mg/kg, po for 4 days by qRT-PCR analysis. Format: functional, organism-based. Background: Quantitative PCR measures a nucleic acid by following its amplification.
Data set [23] is described as follows: Effective permeability by PAMPA. In kind it is ADME. Conditions: read-out: Peff.
A short description of data set [24]: Elimination rate constant in CD1 mouse at 21 mg/kg, po by UPLC-MS/MS analysis. In kind it is ADME, organism-based. The settings on record: in vivo.
Data set [25] concerns Mus musculus. Put plainly: Dose normalized Cmax in CD1 mouse at 21 mg/kg, po by UPLC-MS/MS analysis. In kind it is ADME, organism-based. The settings on record: in vivo.
The subject of data set [26] is Mus musculus. Put plainly: Effect on ADAM10 mRNA levels in SAMP8 mouse brain at 21 mg/kg, po for 4 days by qRT-PCR analysis. In kind it is functional, organism-based.
In data set [27] the test system is Mus musculus. As to the kind of experiment: Downregulation of APP beta-secretase C-terminal fragment protein levels in SAMP8 mouse brain at 21 mg/kg, po for 4 days by Western blot analysis. In kind it is functional, organism-based.
Data set [28] is described as follows: Plasma concentration in CD1 mouse at 21 mg/kg, po after 0.5 hrs by UPLC-MS/MS analysis. Format: ADME, organism-based.
Data set [29] concerns Mus musculus. As to the kind of experiment: Cognitive enhancing effect in SAMP8 mouse assessed as prevention of short-term memory deficits by measuring time spent on exploring novel objects at 21 mg/kg, po for 4 days and measured during 10 mins retention trial after 2 hrs by novel object recognition test. In kind it is functional, organism-based.
The subject of data set [30] is Mus musculus. Put plainly: Effect on Bace1 mRNA levels in SAMP8 mouse brain at 21 mg/kg, po for 4 days by qRT-PCR analysis. In kind it is functional, organism-based.
Data set [31] in a line: Plasma concentration in CD1 mouse at 21 mg/kg, po after 1 hr by UPLC-MS/MS analysis. In kind it is ADME, organism-based.
Data set [32] is described as follows: Stability in mouse liver microsomes at 10 uM after 30 mins by LC-MS/MS analysis. The settings on record: read-out: Stability. Format: ADME, microsome.
The target of data set [33] is 11-beta-hydroxysteroid dehydrogenase 1 (Mus musculus, UniProt P50172). As to the kind of experiment: Inhibition of 11beta-HSD1 in CD1 mouse liver microsomes using cortisone as substrate preincubated for 15 mins followed by substrate addition and measured after 30 mins by LC-MS analysis.
Data set [34] has as its system Mus musculus. As to the kind of experiment: Downregulation of IL-6 mRNA levels in SAMP8 mouse at 21 mg/kg, po for 4 days by qRT-PCR analysis. Format: functional, organism-based.
The subject of data set [35] is Mus musculus. As to the kind of experiment: Upregulation of PSD95 mRNA levels in SAMP8 mouse at 21 mg/kg, po for 4 days by qRT-PCR analysis. In kind it is functional, organism-based.

Chain of 11-beta-hydroxysteroid dehydrogenase 1 (Homo sapiens, UniProt P28845) (P28845 whole entry): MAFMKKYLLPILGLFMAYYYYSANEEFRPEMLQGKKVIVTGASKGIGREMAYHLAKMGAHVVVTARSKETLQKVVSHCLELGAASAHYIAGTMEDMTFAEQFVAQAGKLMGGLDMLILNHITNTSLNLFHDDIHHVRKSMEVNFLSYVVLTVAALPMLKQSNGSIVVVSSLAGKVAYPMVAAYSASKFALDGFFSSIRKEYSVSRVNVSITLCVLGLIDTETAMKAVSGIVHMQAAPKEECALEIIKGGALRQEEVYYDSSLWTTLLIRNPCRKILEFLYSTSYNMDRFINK
Chain of 11-beta-hydroxysteroid dehydrogenase 1 (Mus musculus, UniProt P50172) (P50172 whole entry): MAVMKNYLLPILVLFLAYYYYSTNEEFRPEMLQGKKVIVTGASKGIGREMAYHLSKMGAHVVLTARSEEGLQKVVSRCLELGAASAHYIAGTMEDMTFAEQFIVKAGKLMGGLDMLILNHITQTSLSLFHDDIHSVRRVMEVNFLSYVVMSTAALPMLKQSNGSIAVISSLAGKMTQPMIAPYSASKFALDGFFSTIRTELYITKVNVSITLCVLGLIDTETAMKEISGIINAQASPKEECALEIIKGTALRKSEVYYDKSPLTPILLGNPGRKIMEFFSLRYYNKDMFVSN

As to `O=C(C1CCCCC1)N1CC2C3C=CC(C4CC34)C2C1` (configuration not stated), the 50% inhibitory concentration (IC50) in [1] was 1000 to 10000 nM; in data set [3], 20 nM. The remaining at 0.5 h, 10 µM in data set [2] was 27%.
Take `O=C(C1CCCCC1)N1CC23CC=CCC2(CC=CC3)C1` (configuration not stated): in [3], half-maximal inhibition (IC50) required 40 nM. In [4], this compound registered an inhibition of 100%.
For the compound `O=C(C1CCCCC1)N1CC2C3CCC(C4CC34)C2C1` (configuration not stated), the IC50 in [1] is less than 100 nM; in data set [3], 30 nM; in data set [33], 80 nM. Further, in the data set with Mus musculus [5], the “%AUCextra” value is reported as 0.787%. The compound further displayed a maximum concentration (Cmax) in data set [6] of 44.6 ng/mL. The compound further showed a concentration at 5 h in [7] of 0.28 ng/mL. Further, the result in the data set on Mus musculus [8], in the data set with Mus musculus [22], with Mus musculus [26] and in the data set on Mus musculus [30] was inactive. For the same compound, the time of peak concentration (Tmax) in data set [9] is 30 min. In addition, the apparent clearance CL/F in data set [10] was 8740 mL/min/kg. Also, the remaining at 0.5 h, 10 µM in [2] was 94%; in data set [32] it was 93%. Also, the concentration at 3 h in [11] was determined as 2.12 ng/mL; in [21] it was 1.45 ng/mL. For the same compound, the result in the data set with Mus musculus [12], with Mus musculus [13], in the data set on Mus musculus [18], in the data set with Mus musculus [27], in the data set with Mus musculus [29] and in the data set with Mus musculus [34] was Active. In addition, the outcome with Mus musculus [35] was Active. Moreover, the AUC/dose in the data set on Mus musculus [14] turned out to be 1.906 kg·ng·h/mL/mg. For the same compound, in data set [15], the area under the curve AUC(0-t) worked out at 39.7 ng·h/mL. For the same compound, the Ratio in data set [16] was 5. Moreover, in [17], the Vd/F was 583 L/kg. In data set [19], the half-life was 46.3 min. The compound further yielded an area under the curve AUC(0-inf) in data set [20] of 40 ng·h/mL. For the same compound, in data set [23], the Papp was more than 30 ×10⁻⁶ cm/s. This compound also gave a k el in [24] of 0.00025 s⁻¹. The Cmax/dose with Mus musculus [25] is 2.123 kg·ng/mL/mg. The concentration at 0.5 h in [28] stood at 44.6 ng/mL. Moreover, the concentration at 1 h in data set [31] is 10.3 ng/mL.
Take `O=C(C1CCCCC1)N1CC2C3CCC(CC3)C2C1` (configuration not stated): the IC50 in [1] is 100 to 1000 nM; in data set [3], 20 nM. The remaining at 0.5 h, 10 µM in data set [2] was found to be 17%.
Take `CCN1CCC[C@@H]1C(=O)NC1C2CC3CC(C2)CC1C3` (some centres not stated): in data set [2], the remaining at 0.5 h, 10 µM is 79%. Moreover, the inhibition in data set [4] was found to be 88%.
On to `O=C(C1CCCCC1)N1CC2C3C=CC(C3)C2C1` (configuration not stated), for which the IC50 in data set [1] is less than 100 nM; in data set [3], 20 nM. Also, in data set [2], the remaining at 0.5 h, 10 µM was found to be 60%.
`O=C(C1CCCCC1)N1CC2C3C=CC(CC3)C2C1` (configuration not stated): in data set [2], the remaining at 0.5 h, 10 µM came out at 44%.
Take `O=C(C1CCCCC1)N1CC2C3CCC(C3)C2C1` (configuration not stated): the half-inhibitory concentration (IC50) in data set [1] was less than 100 nM; in data set [3] it was 90 nM. Further, the remaining at 0.5 h, 10 µM in data set [2] was found to be 37%. For the same compound, the Papp in [23] is 5.2 ×10⁻⁶ cm/s.
